Activity calls are given as the source filed them.
Tests used:
Troponin, cardiac muscle = Troponin, cardiac muscle (Homo sapiens, UniProt P19429+P45379+P63316); experiment: Fluorescence-based biochemical high throughput dose response assay for activators of the calcium sensitivity of cardiac Regulated Thin Filaments (RTF). [Related pubchem assays (depositor defined):AID493008, AID493018, AID504382, AID504383]; type: protein-complex assay
[1] = biological target: T1, E3 ubiquitin-protein ligase XIAP (Homo sapiens, UniProt P98170); experiment: Counter Screen using XIAP-Bir3 for Chemical Antagonists of Bir1/2 domains of IAP-family anti-apoptotic proteins. [Related pubchem assays (depositor defined):AID1018, AID1449, AID1514, AID1638, AID1749, AID1750, AID488957, AID488963]
[2] = biological target: T1, E3 ubiquitin-protein ligase XIAP; experiment: small molecules displacing peptide from XIAP – biochemical, IAP family, fluorescence polarization (AID 1018); type: functional
HEK293 [3] = experiment: NOD2 signaling inhibitors in MDP-stimulated cells, cell-based, uHTS, luminescence (AID 2001); type: functional; conditions: Homo sapiens
HEK293 [4] = experiment: cells; type: functional, cell-based; conditions: Homo sapiens
BJ [5] = experiment: BJ-TERT-LT-ST fibroblast viability loss – cell-based, RAS-independent, luminescence, dose response (AID 1935); type: functional; conditions: Homo sapiens;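 note: BJ fibroblasts immortalized with TERT plus LT and ST oncogenes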
[6] = DRD fibroblast viability loss – cell-based, non-viral oncogenic, luminescence, dose response (AID 1934); type: functional; conditions: Homo sapiens
BJ [7] = experiment: cells; type: functional, cell-based; conditions: Homo sapiens
[8] = biological target: T2, Replicative DNA helicase DnaB (Mycobacterium tuberculosis, UniProt P9WMR3); experiment: DnaB intein splicing inhibitors, dose response, biochemical, cell-free fluorescence (AID 449749); type: functional
T2 sequence (P9WMR3 whole entry): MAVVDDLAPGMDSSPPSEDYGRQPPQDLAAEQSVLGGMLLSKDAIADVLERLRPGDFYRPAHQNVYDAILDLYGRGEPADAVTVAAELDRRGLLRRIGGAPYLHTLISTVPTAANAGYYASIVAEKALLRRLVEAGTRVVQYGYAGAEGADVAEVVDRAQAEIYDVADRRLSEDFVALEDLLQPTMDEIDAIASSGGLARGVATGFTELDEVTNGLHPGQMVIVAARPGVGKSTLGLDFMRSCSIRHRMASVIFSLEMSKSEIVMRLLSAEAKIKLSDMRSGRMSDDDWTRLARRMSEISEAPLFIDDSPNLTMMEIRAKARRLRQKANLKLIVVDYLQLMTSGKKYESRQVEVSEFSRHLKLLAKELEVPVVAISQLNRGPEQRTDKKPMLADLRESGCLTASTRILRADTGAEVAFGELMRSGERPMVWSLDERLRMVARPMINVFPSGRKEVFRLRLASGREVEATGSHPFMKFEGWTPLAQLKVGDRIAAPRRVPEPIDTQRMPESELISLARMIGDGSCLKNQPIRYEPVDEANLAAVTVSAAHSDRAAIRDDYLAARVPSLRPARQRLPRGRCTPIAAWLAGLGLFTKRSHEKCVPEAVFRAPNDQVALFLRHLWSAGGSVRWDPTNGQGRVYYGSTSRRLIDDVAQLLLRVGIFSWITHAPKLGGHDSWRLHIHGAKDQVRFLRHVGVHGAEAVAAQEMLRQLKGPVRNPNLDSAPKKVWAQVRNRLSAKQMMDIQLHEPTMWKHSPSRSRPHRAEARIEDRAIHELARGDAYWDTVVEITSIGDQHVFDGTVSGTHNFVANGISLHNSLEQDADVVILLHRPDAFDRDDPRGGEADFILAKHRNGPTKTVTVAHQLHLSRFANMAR

BJ [9] = experiment: BJ-TERT fibroblast viability loss – cell-based, RAS-independent, luminescence, dose response (AID 1933); type: functional; conditions: Homo sapiens
HEK293 [10] = experiment: cells; type: functional, cell-based; conditions: Homo sapiens; remark: listed apart in the source
[11] = biological target: T3, Microphthalmia-associated transcription factor (Homo sapiens, UniProt O75030); experiment: reducers of TRPM1 reporter luminescence, concentration series – cell-based, SK-MEL-5, cherry-picked, set 3, MITF inhibitor project, dose response (AID 493073); type: functional;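 note: SK-MEL-5 melanoma cells with luciferase driven by the MITF target TRPM1 promoter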
T3 sequence (O75030 whole entry): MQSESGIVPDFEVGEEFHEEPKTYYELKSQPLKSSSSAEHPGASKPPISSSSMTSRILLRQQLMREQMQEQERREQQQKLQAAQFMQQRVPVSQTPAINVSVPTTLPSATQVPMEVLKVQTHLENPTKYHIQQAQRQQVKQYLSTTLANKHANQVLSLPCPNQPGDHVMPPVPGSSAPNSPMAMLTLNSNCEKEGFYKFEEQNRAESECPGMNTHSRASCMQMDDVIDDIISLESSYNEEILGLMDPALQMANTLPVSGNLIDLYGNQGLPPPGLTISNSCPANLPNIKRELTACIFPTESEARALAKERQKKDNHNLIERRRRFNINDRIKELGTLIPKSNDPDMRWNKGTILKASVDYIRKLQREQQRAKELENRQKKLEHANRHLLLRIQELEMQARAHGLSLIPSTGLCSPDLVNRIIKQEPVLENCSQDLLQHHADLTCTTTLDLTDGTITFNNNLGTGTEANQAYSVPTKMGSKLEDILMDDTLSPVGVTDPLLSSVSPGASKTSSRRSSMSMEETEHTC

HEK293 [12] = experiment: inhibition of NOD1-driven NF-kB reporter – cell-based, luminescence, uHTS, primary screen (AID 1578); type: functional; conditions: Homo sapiens
Protein RecA = biological target: T4, Protein RecA (Mycobacterium tuberculosis, UniProt P9WHJ3); experiment: Fluorescence Cell-Free Homogeneous Dose Retest to Identify Inhibitors of RecA-Intein Splicing Activity. [Related pubchem assays (depositor defined):AID2097, AID2223, AID489010, AID492950]; type: functional
T4 sequence (P9WHJ3 whole entry): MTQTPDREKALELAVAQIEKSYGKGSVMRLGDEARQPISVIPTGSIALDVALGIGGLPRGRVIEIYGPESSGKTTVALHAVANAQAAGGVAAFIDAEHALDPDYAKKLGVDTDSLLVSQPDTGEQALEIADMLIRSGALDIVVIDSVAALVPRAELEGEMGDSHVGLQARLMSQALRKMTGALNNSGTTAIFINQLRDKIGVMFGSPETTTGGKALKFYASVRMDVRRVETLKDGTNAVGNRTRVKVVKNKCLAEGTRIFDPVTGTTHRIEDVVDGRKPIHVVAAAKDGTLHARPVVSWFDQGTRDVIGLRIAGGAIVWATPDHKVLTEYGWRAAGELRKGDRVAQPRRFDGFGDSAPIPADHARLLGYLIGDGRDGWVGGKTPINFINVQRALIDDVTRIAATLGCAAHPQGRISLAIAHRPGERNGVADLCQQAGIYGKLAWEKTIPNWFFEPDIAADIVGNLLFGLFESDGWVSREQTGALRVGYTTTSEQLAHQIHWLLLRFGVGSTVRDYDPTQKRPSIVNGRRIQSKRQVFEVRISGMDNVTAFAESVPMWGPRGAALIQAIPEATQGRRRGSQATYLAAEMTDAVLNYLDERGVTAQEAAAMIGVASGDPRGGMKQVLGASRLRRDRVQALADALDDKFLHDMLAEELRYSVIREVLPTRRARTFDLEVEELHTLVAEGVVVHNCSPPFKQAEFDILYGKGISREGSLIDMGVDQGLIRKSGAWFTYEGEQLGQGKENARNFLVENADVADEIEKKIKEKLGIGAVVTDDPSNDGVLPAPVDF

[13] = biological target: Nucleotide-binding oligomerization domain-containing protein 2 (Homo sapiens, UniProt Q9HC29); experiment: inhibition of NOD2-driven NF-kB reporter – cell-based, luminescence, uHTS, HEK293 (AID 1566); type: functional
HEK293 [14] = experiment: cells; type: functional, cell-based; conditions: Homo sapiens; remark: listed apart in the source
Streptococcus = experiment: GAS UMAA2166 growth inhibition – luminescence, BacTiterGlo, counter-screen for streptokinase expression inhibitor project, dose response (AID 1915); type: functional, organism-based;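 note: potency for reduction of bacterial viability or growth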
Streptokinase A = biological target: T5, Streptokinase A (Streptococcus pyogenes serotype M1, UniProt P10520); experiment: viability-normalized secreted streptokinase activity reduction – plasminogen activation absorbance, OD405, dose response (AID 1914); type: functional, Streptococcus pyogenes M1 GAS;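 note: secreted streptokinase activity via plasminogen activation per viability signal from cell pellet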
T5 sequence (P10520 whole entry): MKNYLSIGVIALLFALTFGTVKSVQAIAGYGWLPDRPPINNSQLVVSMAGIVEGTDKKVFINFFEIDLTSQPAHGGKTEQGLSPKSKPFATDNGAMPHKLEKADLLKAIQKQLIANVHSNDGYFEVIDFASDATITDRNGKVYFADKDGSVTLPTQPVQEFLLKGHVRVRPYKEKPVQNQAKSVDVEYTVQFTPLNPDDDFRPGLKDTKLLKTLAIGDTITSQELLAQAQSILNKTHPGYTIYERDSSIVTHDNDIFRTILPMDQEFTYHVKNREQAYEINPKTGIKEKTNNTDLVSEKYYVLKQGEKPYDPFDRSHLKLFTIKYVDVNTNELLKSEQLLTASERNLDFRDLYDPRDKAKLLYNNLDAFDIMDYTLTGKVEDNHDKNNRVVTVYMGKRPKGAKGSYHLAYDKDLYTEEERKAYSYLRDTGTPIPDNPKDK

[15] = biological target: T6, Kappa-type opioid receptor (Homo sapiens, UniProt P41145); type: functional
INS1 = experiment: INS-1E survival protection against cytokine death – cell-based, luminescence, retest, dose response (AID 449756); type: functional; conditions: Rattus norvegicus;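 note: cell death triggered by IL-1 beta plus TNF-alpha plus IFN-gamma mixture; protective hits raise ATP signal compared with cytokine alone wells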
[16] = system: Streptococcus sp. 'group A'; experiment: Streptococcus pyogenes SK(-)GAS viability under kanamycin – luminescence, BacTiterGlo, confirmation, counter-screen for streptokinase expression inhibitor project, dose response (AID 1900); type: functional, organism-based
Beta-galactosidase = Beta-galactosidase (Escherichia coli, UniProt Q8VNN2); type: functional
Insulin-degrading enzyme [17] = biological target: T7, Insulin-degrading enzyme (Homo sapiens, UniProt P14735); experiment: recombinant IDE activation, cell-free – biochemical, fluorescence polarization, counter-screen for IDE activator project, dose response (AID 588681)
T7 sequence (P14735 whole entry): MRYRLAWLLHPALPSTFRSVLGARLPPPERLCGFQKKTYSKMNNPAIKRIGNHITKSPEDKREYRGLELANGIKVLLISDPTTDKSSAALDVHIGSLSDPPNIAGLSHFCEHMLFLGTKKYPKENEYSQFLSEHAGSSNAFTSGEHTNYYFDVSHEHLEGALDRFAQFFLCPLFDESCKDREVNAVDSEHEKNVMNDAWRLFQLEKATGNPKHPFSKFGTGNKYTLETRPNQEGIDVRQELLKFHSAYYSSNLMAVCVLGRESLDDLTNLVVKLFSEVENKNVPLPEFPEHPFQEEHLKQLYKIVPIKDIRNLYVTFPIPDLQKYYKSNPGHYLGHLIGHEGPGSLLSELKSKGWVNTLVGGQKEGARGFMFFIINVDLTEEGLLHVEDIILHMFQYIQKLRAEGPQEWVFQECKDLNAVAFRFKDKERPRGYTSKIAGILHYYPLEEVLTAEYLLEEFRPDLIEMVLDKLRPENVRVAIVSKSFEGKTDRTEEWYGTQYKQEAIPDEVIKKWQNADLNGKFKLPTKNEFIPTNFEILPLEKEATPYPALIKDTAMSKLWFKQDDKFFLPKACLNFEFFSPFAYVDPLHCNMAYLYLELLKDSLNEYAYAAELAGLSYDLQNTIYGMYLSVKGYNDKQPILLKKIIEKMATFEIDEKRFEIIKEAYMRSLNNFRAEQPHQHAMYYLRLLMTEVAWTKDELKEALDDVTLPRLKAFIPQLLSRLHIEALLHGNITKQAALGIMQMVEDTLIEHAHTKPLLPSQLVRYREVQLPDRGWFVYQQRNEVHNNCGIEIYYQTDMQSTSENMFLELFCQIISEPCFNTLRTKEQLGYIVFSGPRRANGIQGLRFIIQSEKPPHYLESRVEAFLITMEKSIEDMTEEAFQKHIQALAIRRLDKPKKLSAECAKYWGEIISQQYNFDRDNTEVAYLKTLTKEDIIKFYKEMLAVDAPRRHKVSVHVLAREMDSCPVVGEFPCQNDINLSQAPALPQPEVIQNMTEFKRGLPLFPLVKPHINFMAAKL

Insulin-degrading enzyme [18] = biological target: T7, Insulin-degrading enzyme; experiment: cellular IDE activation of Abeta substrate cleavage – fluorescence polarization, HEK cells, dose response (AID 588439); type: functional, cell-based
HEK293 [19] = experiment: optical interference in Abeta FP readout, dose response, artefact control for IDE activator project, biochemical, fluorescence polarization (AID 588442); type: functional, cell-based; conditions: Homo sapiens
HEK293 [20] = experiment: membrane integrity loss in HEK cells – cell-based, fluorescence, cytotoxicity control for IDE activator project, dose response (AID 588440); type: functional; conditions: Homo sapiens;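 note: cytotoxicity by LDH release measuring loss of membrane integrity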
[21] = biological target: T6, Kappa-type opioid receptor; type: functional; remark: listed apart in the source

CC(=O)Nc1cc(C(=O)NCc2ccco2)ccc1Sc1ccc(F)cc1
EC50 (Troponin, cardiac muscle): > 71.5 µM (inactive)

Cc1ccc(S(=O)(=O)c2cn(CC(=O)Nc3ccccc3)c3ccc(F)cc3c2=O)cc1
IC50 [1]: > 100 µM (inactive)
IC50 [2]: > 100 µM (not active)

COCCN(C(=O)CCl)C(C(=O)NC1CCCCC1)c1ccccc1C (configuration not stated)
IC50 (HEK293 [3]): 6.74 µM (active)
IC50 (HEK293 [4]): 14.9 µM (active)
EC50 (BJ [5]): > 150 µM (inconclusive)
EC50 [6]: 10.5 µM (active)
EC50 (BJ [7]): 14.4 µM (active)
AC50 [8]: 25 µM (active)
EC50 (BJ [9]): 8.42 µM (active)
IC50 (HEK293 [10]): 6.54 µM (active)
AC50 [11]: 17.8 µM (active)
EC50 (HEK293 [12]): 4.73 µM (active)
EC50 (Protein RecA): 1.28 µM (active)
EC50 [13]: > 20 µM (inactive)
IC50 (HEK293 [14]): > 20 µM (inactive)

CCOc1cc(/C=N/Nc2cc(C)nc(-n3nc(C)cc3C)n2)ccc1O
EC50 (Streptococcus): 32.7 µM (active)
EC50 (Streptokinase A): > 150 µM (not active)
IC50 [15]: > 31.5 µM (inactive)
AC50 (INS1): 0.862 µM (active)
EC50 [16]: 1.67 µM (active)
EC50 (Beta-galactosidase): > 31.5 µM (inactive)
EC50 (Insulin-degrading enzyme [17]): > 54.7 µM (inactive)
EC50 (Insulin-degrading enzyme [18]): > 54.7 µM (inactive)
EC50 (HEK293 [19]): > 54.7 µM (inactive)
IC50 (HEK293 [20]): 32.3 µM (inactive)
IC50 [21]: > 32 µM

Source: ChEMBL document CHEMBL1201862, “PubChem BioAssay data set” (2004)
